In BindingDB's records for doi:10.1016/j.ejmech.2023.115101 (n/a, 2023):

Target: Paired box protein Pax-2 (Homo sapiens, UniProt Q02962)
Experiment: Inhibition of pax2 (unknown origin) in human SK-OV-3 cells measured after 24 hrs by immunoblotting analysis

Chain of Paired box protein Pax-2 (Q02962 whole entry): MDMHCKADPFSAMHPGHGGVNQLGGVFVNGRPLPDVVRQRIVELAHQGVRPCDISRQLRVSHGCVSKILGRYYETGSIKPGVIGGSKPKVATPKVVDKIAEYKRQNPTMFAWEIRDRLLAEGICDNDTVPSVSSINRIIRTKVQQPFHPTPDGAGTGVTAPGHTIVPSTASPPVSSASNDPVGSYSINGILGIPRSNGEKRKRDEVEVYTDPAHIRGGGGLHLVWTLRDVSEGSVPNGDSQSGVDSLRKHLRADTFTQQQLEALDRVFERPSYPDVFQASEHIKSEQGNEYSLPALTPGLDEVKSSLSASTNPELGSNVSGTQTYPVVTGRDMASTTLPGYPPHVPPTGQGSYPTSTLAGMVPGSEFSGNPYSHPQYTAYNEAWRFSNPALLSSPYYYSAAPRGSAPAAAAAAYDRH

SMILES: Cc1ccc(C)c(N2CCN(c3c(C)c(C)nc4ncnn34)CC2)c1
- IC50: 1500 nM
